Legend:
Type in all cases: in vivo
Musca domestica [1] = assay: Insecticidal test, Musca domestica (houseflies - adults), contact; details: 24 h, cotton wool/sugar, 1 day, read-out: grading of mortality, MD
Summary of the method: (§1)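 Product applied at 500, 250 or 100 ppm as acetone solution diluted in water with 0.01% Lissapol NX wetting agent, onto pests and/or their host plant or food medium. Mortality or knockdown scored 1–3 days after treatment and graded A (80–100%; 70–100% for S. exigua), B (50–79%; 50–69% for S. exigua) or C (<50%).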

Diabrotica balteata = assay: Insecticidal test, Diabrotica balteata (rootworm larvae), residual; details: 72 h, filter paper/maize seed, 3 days, read-out: grading of mortality, DB
Summary of the method: as §1

Musca domestica [2] = assay: Knockdown test, Musca domestica (houseflies - adults); details: cotton wool/sugar, 4 hours, read-out: grading of knockdown, MD/KD
Summary of the method: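 Knockdown scores were banded: A 80–100%, B 50–79%, C <50%. Test preparations of 500, 250 or 100 ppm compound were made in acetone, then diluted with water containing 0.01% Lissapol NX, and applied to Musca domestica adults.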

Blattella germanica = assay: Insecticidal test, Blattella germanica (cockroach nymphs), residual; details: 72 h, plastic pot, 3 days, read-out: grading of mortality, BG
Summary of the method: as §1

Myzus persicae = assay: Insecticidal test, Myzus persicae (aphids), contact; details: 72 h, Chinese Cabbage leaf, 3 days, read-out: grading of mortality, MP
Summary of the method: as §1

Tetranychus urticae = assay: Insecticidal/acaricidal test, Tetranychus urticae (spider mites - adult), contact; details: 72 h, French bean leaf, 3 days, read-out: grading of mortality, TU
Summary of the method: as §1

Heliothis virescens = assay: whole plant or invertebrate; details: in Gossypium hirsutum, 72 h, read-out: grading of mortality, HV
Summary of the method: as §1

Nilaparvata lugens = assay: Insecticidal test, Nilaparvata lugens (brown planthopper), contact; details: 72 h, Cabbage leaf, 3 days, read-out: grading of mortality, NL
Summary of the method: as §1

Spodoptera exigua = assay: Insecticidal test, Spodoptera exigua (lesser armyworm), residual; details: 72 h, 500 ppm, cotton leaf, 3 days, read-out: grading of mortality, SE
Method: The activity of the Product was determined using a variety of insect and acarine pests. The Product was used in the form of liquid preparations containing 500, 250 or 100 parts per million (ppm) by weight of the Product. The preparations were made by dissolving the Product in acetone and diluting the solutions with water containing 0.01% by weight of a wetting agent sold under the trade name "LISSAPOL" NX until the liquid preparations contained the required concentratio of the Product. "Lissapol" is a Registered Trade Mark.
The test procedure adopted with regard to each pest was basically the same and comprised supporting a number of the pests on a medium which was usually a host plant or a foodstuff on which the pests feed, and treating either or both the pests and the medium with the preparations. The mortality of the pests was then assessed at periods usually varying from one to three days after the treatment.
The results of the tests are given in Table IV for each of the Products, at the rate in parts per million given in the second column as a grading of mortality designated as A, B or C wherein A indicates 80-100% mortality or knockdown (70-100% in the case of Spodoptera exigua), B indicates 50-79% mortality or knockdown (50-69% in the case of Spodoptera exigua) and C indicates less than 50% mortality or knockdown.
In Table IV the pest organism used is designated by a letter code and the pest species, the support medium or food, and the type and duration of test is given in Table III.

SMILES | mortality at 500 ppm (Musca domestica [1]) | mortality at 500 ppm (Diabrotica balteata) | pest or weed control at 500 ppm (Musca domestica [2]) | mortality at 500 ppm (Blattella germanica) | mortality at 500 ppm (Myzus persicae) | mortality at 500 ppm (Tetranychus urticae) | mortality at 500 ppm (Heliothis virescens) | mortality at 500 ppm (Nilaparvata lugens) | other results
FC(F)(F)Oc1ccc(C(COCc2cccc(Oc3ccccc3)c2)C(F)(F)F)cc1 (stereo not drawn) [Compound 27, 1,1,1-Trifluoro-2-(4-trifluoromethoxyphenyl)-3-(3-phenoxybenzyloxy)propane] |  |  |  |  |  |  |  |  | mortality at 100 ppm (Musca domestica [1]): 80 to 100%; mortality at 100 ppm (Diabrotica balteata): 80 to 100%; pest or weed control at 100 ppm (Musca domestica [2]): < 50%; mortality at 100 ppm (Blattella germanica): 80 to 100%; mortality at 100 ppm (Myzus persicae): 80 to 100%; mortality at 100 ppm (Tetranychus urticae): 80 to 100%; mortality at 100 ppm (Heliothis virescens): 80 to 100%; mortality at 100 ppm (Nilaparvata lugens): 80 to 100%
CCCc1ccc(C(=COCc2ccc(F)c(Oc3ccccc3)c2)C(F)(F)F)cc1 [Compound 460, 1,1,1-trifluoro-2-(4-n-propylphenyl)-3-(3-phenoxy-4-fluorobenzyloxy)prop-2-ene] | < 50% | 50 to 79% | < 50% | 80 to 100% | < 50% | < 50% | < 50% | 50 to 79% | 
CCCc1ccc(C(Cl)(COCc2ccc(F)c(Oc3ccccc3)c2)C(F)(F)F)cc1 (stereo not drawn) [Compound 53, 1,1,1-Trifluoro-2-chloro-2-(4-n-propylphenyl)-3-(3-phenoxy-4-fluorobenzyloxy)propane] | 80 to 100% | 80 to 100% | 80 to 100% | 80 to 100% | 80 to 100% | 80 to 100% | 80 to 100% | 80 to 100% | 
CCOc1ccc(C(COCc2ccc(F)c(Oc3ccc(Cl)cc3)c2)C(F)(F)F)cc1 (stereo not drawn) [Compound 5, 1,1,1-Trifluoro-2-(4-ethoxyphenyl)-3-(3-(4-chlorophenoxy)4-fluorobenzyloxy)propane] | 80 to 100% | 80 to 100% | 80 to 100% | 80 to 100% | 80 to 100% | 50 to 79% | 80 to 100% | 80 to 100% | 
FC(F)(F)C(COCc1cccc(Oc2ccccc2)c1)c1ccc(Cl)cc1 (stereo not drawn) [Compound 16, 1,1,1-Trifluoro-2-(4-chlorophenyl)-3-(3-phenoxybenzyloxy)propane] |  |  |  |  |  |  |  |  | mortality at 100 ppm (Musca domestica [1]): 80 to 100%; mortality at 100 ppm (Diabrotica balteata): 80 to 100%; pest or weed control at 100 ppm (Musca domestica [2]): 80 to 100%; mortality at 100 ppm (Blattella germanica): 80 to 100%; mortality at 100 ppm (Myzus persicae): 80 to 100%; mortality at 100 ppm (Tetranychus urticae): < 50%; mortality at 100 ppm (Heliothis virescens): 80 to 100%; mortality at 100 ppm (Nilaparvata lugens): 80 to 100%
CCOc1ccc(C(COCc2cccc(Oc3ccc(Br)cc3)c2)C(F)(F)F)cc1 (stereo not drawn) [Compound 9, 1,1,1-Trifluoro-2-(4-ethoxyphenyl)-3-(3-(4-bromophenoxy)benzyloxy)propane] |  |  |  |  |  |  |  |  | mortality at 250 ppm (Musca domestica [1]): 80 to 100%; mortality at 250 ppm (Diabrotica balteata): 80 to 100%; pest or weed control at 250 ppm (Musca domestica [2]): 80 to 100%; mortality at 250 ppm (Blattella germanica): 80 to 100%; mortality at 250 ppm (Myzus persicae): < 50%; mortality at 250 ppm (Tetranychus urticae): 50 to 79%; mortality at 250 ppm (Heliothis virescens): 80 to 100%; mortality at 250 ppm (Nilaparvata lugens): < 50%
Fc1ccc(COCC(Cl)(c2ccc(Cl)cc2)C(F)(F)F)cc1Oc1ccccc1 (stereo not drawn) [Compound 50, 1,1,1-Trifluoro-2-chloro-2-(4-chlorophenyl)-3-(3-phenoxy-4-fluorobenzyloxy)propane] | 80 to 100% | 80 to 100% | 80 to 100% | < 50% | 80 to 100% | < 50% | 80 to 100% | 80 to 100% | 
Fc1ccc(COC=C(c2ccc3c(c2)CCC3)C(F)(F)F)cc1Oc1ccccc1 [Compound 459, 1,1,1-trifluoro-2-(5-indanyl)-3-(3-phenoxy-4-fluorobenzyloxy)prop-2-ene] | < 50% | 80 to 100% | 50 to 79% | < 50% | < 50% | 80 to 100% | < 50% | < 50% | 
CCOc1ccc(C(COCc2cccc(Oc3ccccc3)c2)C(F)(F)F)cc1 (stereo not drawn) [Compound 1, 1,1,1-trifluoro-2-(4-ethoxyphenyl)-3-(3-phenoxybenzyloxy)propane] | 80 to 100% | 80 to 100% | 80 to 100% | 80 to 100% | 80 to 100% | 80 to 100% | 80 to 100% | 80 to 100% | 
Fc1ccc(COC=C(c2ccc(Cl)cc2)C(F)(F)F)cc1Oc1ccccc1 [Compound 458, 1,1,1-trifluoro-2-(4-chlorophenyl)-3-(3-phenoxy-4-fluorobenzyloxy)prop-2-ene] | 80 to 100% | 80 to 100% | 80 to 100% | 50 to 79% | < 50% | < 50% | 80 to 100% | 80 to 100% | 
CCOc1ccc(C(Cl)(COCc2cccc(Oc3ccccc3)c2)C(F)(F)F)cc1 (stereo not drawn) [Compound 38, 1,1,1-trifluoro-2-chloro-2-(4-ethoxyphenyl)-3-(3-phenoxybenzyloxy)propane] |  |  |  |  |  |  |  |  | mortality at 100 ppm (Musca domestica [1]): 80 to 100%; mortality at 100 ppm (Diabrotica balteata): < 50%; pest or weed control at 100 ppm (Musca domestica [2]): < 50%; mortality at 100 ppm (Blattella germanica): 80 to 100%; mortality at 100 ppm (Myzus persicae): 80 to 100%; mortality at 100 ppm (Tetranychus urticae): < 50%; mortality at 100 ppm (Heliothis virescens): 80 to 100%; mortality at 100 ppm (Nilaparvata lugens): 50 to 79%
Fc1ccc(COCC(Cl)(c2ccc3c(c2)CCC3)C(F)(F)F)cc1Oc1ccccc1 (stereo not drawn) [Compound 52, 1,1,1,-Trifluoro-2-chloro-2-(5-indanyl)-3-(3-phenoxy-4-fluorobenzyloxy)propane] | 50 to 79% | < 50% | 80 to 100% | 80 to 100% | < 50% | < 50% | 50 to 79% | < 50% | 
CCOc1ccc(C(Cl)(COCc2coc(Cc3ccccc3)c2)C(F)(F)F)cc1 (stereo not drawn) [Compound 45, 1,1,1-Trifluoro-2-chloro-2-(4-ethoxyphenyl)-3-(5-benzyl-3-furanylmethyloxy)propane] |  |  |  |  |  |  |  |  | mortality at 250 ppm (Musca domestica [1]): < 50%; mortality at 250 ppm (Diabrotica balteata): < 50%; pest or weed control at 250 ppm (Musca domestica [2]): 80 to 100%; mortality at 250 ppm (Blattella germanica): < 50%; mortality at 250 ppm (Myzus persicae): < 50%; mortality at 250 ppm (Tetranychus urticae): 50 to 79%; mortality at 250 ppm (Heliothis virescens): < 50%; mortality at 250 ppm (Nilaparvata lugens): < 50%
CCOc1ccc(C(COC(c2cccc(Oc3ccccc3)c2)C(F)(F)F)C(F)(F)F)cc1 (racemic) [Compound 264] | < 50% | < 50% | < 50% | < 50% | < 50% | 50 to 79% | < 50% |  | mortality at 500 ppm (Spodoptera exigua): 70 to 100%
CCOc1ccc(C(Cl)(COCc2ccc(F)c(Oc3ccc(Cl)cc3)c2)C(F)(F)F)cc1 (stereo not drawn) [Compound 44, 1,1,1-Trifluoro-2-chloro-2-(4-ethoxyphenyl)-3-(3-(4-chlorophenoxy)-4-fluorobenzyloxy)propane] | 80 to 100% | 50 to 79% | 80 to 100% | 80 to 100% | 80 to 100% | < 50% | 80 to 100% | 80 to 100% | 
